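Method: 48-hour compound exposure of cells in 96-well plates, five concentrations, linear interpolation of endpoints. Abbreviation: GI50, concentration required for 50% inhibition of growth.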 Activity calls are given as the source filed them. No stated cut-off is given here; in the data, active = GI50 up to about 1.1 µM and inactive = higher.
How the values were obtained:
Test in all cases: inhibition of tumour cell growth, NCI panel, 48 h
HCT-116 = tested on: HCT-116
Hs-578T = tested on: Hs-578T
T47D = tested on: T47D
SNB-19 = tested on: SNB-19
K562 = tested on: K562
MCF7 = tested on: MCF7
MOLT-4 = tested on: MOLT-4
UACC-62 = tested on: UACC-62
HCC 2998 = tested on: HCC 2998
HOP-92 = tested on: HOP-92
M14 = tested on: M14
SF-295 = tested on: SF-295
NCI-H23 = tested on: NCI-H23
HL-60 = tested on: HL-60
TK-10 = tested on: TK-10
SK-OV-3 = tested on: SK-OV-3
A498 = tested on: A498
SK-MEL-5 = tested on: SK-MEL-5
HOP-62 = tested on: HOP-62
MDA-N = tested on: MDA-N

Structure (SMILES)	GI50 (HCT-116)	GI50 (Hs-578T)	GI50 (T47D)	GI50 (SNB-19)	GI50 (K562)	GI50 (MCF7)	GI50 (MOLT-4)	GI50 (UACC-62)	GI50 (HCC 2998)	GI50 (HOP-92)	GI50 (M14)	GI50 (SF-295)	GI50 (NCI-H23)	GI50 (HL-60)	GI50 (TK-10)	GI50 (SK-OV-3)	GI50 (A498)	GI50 (SK-MEL-5)	GI50 (HOP-62)	GI50 (MDA-N)
O=c1[nH]nc(-c2ccccc2)n1/N=C/c1cccc([N+](=O)[O-])c1	> 100 µM (inactive)	> 100 µM (inactive)	> 100 µM (inactive)	98.6 µM (inactive)	> 100 µM (inactive)	> 100 µM (inactive)	> 100 µM (inactive)	> 100 µM (inactive)	> 100 µM (inactive)	> 100 µM (inactive)	> 100 µM (inactive)	59.7 µM (inactive)	> 100 µM (inactive)	> 100 µM (inactive)	> 100 µM (inactive)	14.9 µM (inactive)	> 100 µM (inactive)	> 100 µM (inactive)	28.7 µM (inactive)	–
O=C(O)C1CCCCN1C(=O)c1ccccc1 (centres undefined)	> 100 µM (inactive)	–	–	> 100 µM (inactive)	> 100 µM (inactive)	–	> 100 µM (inactive)	> 100 µM (inactive)	> 100 µM (inactive)	> 100 µM (inactive)	> 100 µM (inactive)	> 100 µM (inactive)	> 100 µM (inactive)	> 100 µM (inactive)	> 100 µM (inactive)	> 100 µM (inactive)	> 100 µM (inactive)	> 100 µM (inactive)	> 100 µM (inactive)	–
Nc1nnc2nc(CC(=O)/C=C/c3ccccc3)c(=O)[nH]n12	> 100 µM (inactive)	–	–	> 100 µM (inactive)	> 100 µM (inactive)	–	> 100 µM (inactive)	> 100 µM (inactive)	> 100 µM (inactive)	> 100 µM (inactive)	> 100 µM (inactive)	> 100 µM (inactive)	> 100 µM (inactive)	> 100 µM (inactive)	> 100 µM (inactive)	> 100 µM (inactive)	> 100 µM (inactive)	> 100 µM (inactive)	> 100 µM (inactive)	–
CN(C)/C=N/[C@@H](C(=O)O)c1ccccc1	> 100 µM (inactive)	–	> 100 µM (inactive)	> 100 µM (inactive)	> 100 µM (inactive)	> 100 µM (inactive)	> 100 µM (inactive)	> 100 µM (inactive)	> 100 µM (inactive)	> 100 µM (inactive)	> 100 µM (inactive)	> 100 µM (inactive)	> 100 µM (inactive)	> 100 µM (inactive)	> 100 µM (inactive)	> 100 µM (inactive)	> 100 µM (inactive)	> 100 µM (inactive)	> 100 µM (inactive)	> 100 µM (inactive)
N#CCCC1(CCC#N)CCCCCCC(CCC#N)(CCC#N)C(O)C1O (centres undefined)	> 100 µM (inactive)	–	> 100 µM (inactive)	> 100 µM (inactive)	> 100 µM (inactive)	> 100 µM (inactive)	–	–	> 100 µM (inactive)	> 100 µM (inactive)	> 100 µM (inactive)	> 100 µM (inactive)	> 100 µM (inactive)	–	> 100 µM (inactive)	> 100 µM (inactive)	> 100 µM (inactive)	> 100 µM (inactive)	> 100 µM (inactive)	> 100 µM (inactive)
CCOC(=O)C12CCC(=O)N1N(C)c1ncccc1N2 (centres undefined)	> 100 µM (inactive)	–	> 100 µM (inactive)	> 100 µM (inactive)	> 100 µM (inactive)	> 100 µM (inactive)	> 100 µM (inactive)	> 100 µM (inactive)	77.4 µM (inactive)	–	> 100 µM (inactive)	> 100 µM (inactive)	> 100 µM (inactive)	–	> 100 µM (inactive)	> 100 µM (inactive)	> 100 µM (inactive)	> 100 µM (inactive)	> 100 µM (inactive)	> 100 µM (inactive)
c1ccc2c(NCCCCCCCCNc3c4ccccc4nc4ccccc34)c3ccccc3nc2c1	0.0392 µM (active)	0.478 µM (active)	0.59 µM (active)	0.332 µM (active)	0.0469 µM (active)	0.0578 µM (active)	0.0419 µM (active)	0.684 µM (active)	0.0723 µM (active)	1.48 µM (inactive)	0.975 µM (active)	0.693 µM (active)	0.257 µM (active)	0.125 µM (active)	1.38 µM (inactive)	0.553 µM (active)	1.26 µM (inactive)	1.39 µM (inactive)	0.224 µM (active)	–
CCN(CC)CCOC(=O)c1ccc(N)cc1.CCOC(=O)Nc1ccc(S(=O)(=O)OC)cc1.CCOC(=O)Nc1ccc(S(=O)(=O)OC)cc1.Nc1ccc(C(=O)O)c(O)c1	> 100 µM (inactive)	–	–	> 100 µM (inactive)	> 100 µM (inactive)	–	> 100 µM (inactive)	> 100 µM (inactive)	> 100 µM (inactive)	> 100 µM (inactive)	> 100 µM (inactive)	> 100 µM (inactive)	> 100 µM (inactive)	> 100 µM (inactive)	> 100 µM (inactive)	> 100 µM (inactive)	> 100 µM (inactive)	> 100 µM (inactive)	> 100 µM (inactive)	–
CCSCCCN(CCCSCC)CCCSCC	> 100 µM (inactive)	–	> 100 µM (inactive)	> 100 µM (inactive)	> 100 µM (inactive)	> 100 µM (inactive)	> 100 µM (inactive)	> 100 µM (inactive)	> 100 µM (inactive)	5.16 µM (inactive)	> 100 µM (inactive)	> 100 µM (inactive)	> 100 µM (inactive)	80.9 µM (inactive)	–	> 100 µM (inactive)	–	> 100 µM (inactive)	> 100 µM (inactive)	> 100 µM (inactive)
COC(=N)CCCl	> 100 µM (inactive)	–	–	> 100 µM (inactive)	> 100 µM (inactive)	> 100 µM (inactive)	> 100 µM (inactive)	> 100 µM (inactive)	> 100 µM (inactive)	> 100 µM (inactive)	> 100 µM (inactive)	> 100 µM (inactive)	> 100 µM (inactive)	> 100 µM (inactive)	> 100 µM (inactive)	> 100 µM (inactive)	–	> 100 µM (inactive)	> 100 µM (inactive)	> 100 µM (inactive)
O=C(O)CCC(NC(=O)c1ccc(OCc2nc3cc(C(F)(F)F)ccc3nc2-c2ccccc2)cc1)C(=O)O (centres undefined)	> 100 µM (inactive)	–	> 100 µM (inactive)	> 100 µM (inactive)	> 100 µM (inactive)	> 100 µM (inactive)	> 100 µM (inactive)	> 100 µM (inactive)	> 100 µM (inactive)	> 100 µM (inactive)	> 100 µM (inactive)	> 100 µM (inactive)	> 100 µM (inactive)	> 100 µM (inactive)	> 100 µM (inactive)	> 100 µM (inactive)	> 100 µM (inactive)	–	> 100 µM (inactive)	–
CSc1nc2c(nc(N)n2C2OC(CO)C(O)C(O)C2O)c(=O)n1C (centres undefined)	> 100 µM (inactive)	–	–	> 100 µM (inactive)	> 100 µM (inactive)	–	> 100 µM (inactive)	> 100 µM (inactive)	> 100 µM (inactive)	> 100 µM (inactive)	> 100 µM (inactive)	> 100 µM (inactive)	> 100 µM (inactive)	> 100 µM (inactive)	> 100 µM (inactive)	> 100 µM (inactive)	> 100 µM (inactive)	> 100 µM (inactive)	> 100 µM (inactive)	–
CC(=O)Nc1oc(C)nc1C#N	> 100 µM (inactive)	> 100 µM (inactive)	–	> 100 µM (inactive)	> 100 µM (inactive)	> 100 µM (inactive)	> 100 µM (inactive)	> 100 µM (inactive)	–	> 100 µM (inactive)	> 100 µM (inactive)	–	–	> 100 µM (inactive)	> 100 µM (inactive)	> 100 µM (inactive)	> 100 µM (inactive)	> 100 µM (inactive)	> 100 µM (inactive)	> 100 µM (inactive)
O=C(Cn1c2ccc(Br)cc2c2nc3ccccc3nc21)N/N=C/c1ccccc1	–	–	> 100 µM (inactive)	79.3 µM (inactive)	43.4 µM (inactive)	> 100 µM (inactive)	> 10 µM (inactive)	72.9 µM (inactive)	–	–	> 100 µM (inactive)	16.3 µM (inactive)	> 100 µM (inactive)	–	> 100 µM (inactive)	31.1 µM (inactive)	> 100 µM (inactive)	> 100 µM (inactive)	19.1 µM (inactive)	–
CN(C)C(=O)Oc1ccc(-c2cn3cc(NC(=O)c4ccccc4)ccc3n2)cc1	> 100 µM (inactive)	–	21.6 µM (inactive)	50.8 µM (inactive)	19.5 µM (inactive)	31.7 µM (inactive)	17.2 µM (inactive)	> 100 µM (inactive)	52 µM (inactive)	> 100 µM (inactive)	> 100 µM (inactive)	> 100 µM (inactive)	> 100 µM (inactive)	–	> 100 µM (inactive)	> 100 µM (inactive)	> 100 µM (inactive)	21.4 µM (inactive)	> 100 µM (inactive)	> 100 µM (inactive)
CCn1c(=O)c2c(=O)[nH][nH]c2c2ccccc21	> 100 µM (inactive)	> 100 µM (inactive)	–	> 100 µM (inactive)	> 100 µM (inactive)	> 100 µM (inactive)	> 100 µM (inactive)	–	> 100 µM (inactive)	> 100 µM (inactive)	–	> 100 µM (inactive)	> 100 µM (inactive)	> 100 µM (inactive)	> 100 µM (inactive)	–	> 100 µM (inactive)	> 100 µM (inactive)	> 100 µM (inactive)	> 100 µM (inactive)

Reference: ChEMBL document CHEMBL1201862, “PubChem BioAssay data set” (2004)
